Measurements from US20260085315A1, “POLYNUCLEOTIDE COMPOSITIONS AND METHODS FOR TREATMENT OF CANCER” (APTAH BIO, INC., priority 2023, published 2026).
Values joined by “and” are separate entries in the source; they are usually repeats but may differ in a detail not shown here. Identical values can stand only once. d = 2'-deoxy (DNA); m = 2'-O-methyl

Assays:
[1] = system: SH-SY5Y cell line; assay: MTT cytotoxicity assay on human cancer cell panel (Example 2); format: cell-based; details: 0.03-30 μM tested, 0.1% FBS
Protocol: Cell lines were maintained in growth medium with 10% of Fetal Bovine Serum (FBS) until the time of the experiments. Cells were sub-cultured by trypsinization and splitting the cell suspension into fresh flasks and supplementing with fresh culture medium. To perform the assay, the cells were trypsinized, neutralized with complete medium (10% FBS), centrifuged, counted with assistance of a hemocytometer, and plated with the respective media with 10% FBS. Cell lines were plated at a density of 1×10^4 cells per well, other than the SH-SY5Y cell line which was plated at a density of 2.5×10^4. […] After 24, 48, 72 and 96 hours of incubation, the effect of ASMO1 and controls on cytotoxicity of cells was determined by MTT assay.
Briefly, plates were taken out and 20 μl of 5 mg/ml of MTT 3-(4,5-dimethythiazol-2-yl)-2,5-diphenyl tetrazolium bromide solution was added to all the wells. […] The absorbance of each well was then read at 540 nm using Synergy HT microplate reader.
As shown in FIG. 13A-D, up to 72 hours ASMO1 APT20TTMG seems to have a cytotoxic effect from the concentration of […]. At 96 hours, the profile is a little different, and the concentration of 0.3 μM seems to start some effect. […] MTT assay was performed in 4 distinct times and graphs are represented as absorbance (540 nm). […]

[2] = system: MCF-7 cell line; assay: Internalization of carboxyfluorescein-conjugated APT20TTMG by flow cytometry; format: cell-based, Human; details: 1 μM carboxyfluorescein conjugate
Protocol: To investigate the internalization of ASMO APT20TTMG by MCF-7 cell line, the quantification of intracellular fluorescence was measured by flow cytometry. For this aim, the ASMO APT20TTMG was conjugated to the fluorochrome carboxyfluorescein. It is assumed that the percentage of ASMO molecules internalized is presumably proportional to the quantified fluorescence signal detected inside the cells. The cell lines were cultured in 24-well plates for 24 hours at 5×10^4 cells per well. After that, the cells were incubated with ASMO1 prepared in culture medium without FBS at a concentration of 1 μM for 0.5, 1, 2, 4, and 6 hours. Untreated cells were used as negative controls. After treatment incubation, cells were washed twice with 1 mL of PBS/well and then incubated with 200 μL/well of trypsin/EDTA solution for approximately 3 minutes for disaggregation of adherent cells. Trypsin was neutralized by the addition of complete medium and cells were centrifuged at 1500 rpm for 5 minutes. Subsequently, the cells were washed with 2 mL/sample of PBS and centrifuged again at 1500 rpm for 5 minutes. […] The fluorescence of the cells, corresponding to the cellular uptake of the APT20TTMG labeled with carboxyfluorescein, was analyzed using a BD FACSCANTO II Flow cytometer (BD Biosciences, NJ, USA) through the acquisition of 10.000 gated events considering each sample.

[3] = system: MCF-7 cell line; assay: Mitochondrial membrane potential (MitoTracker Red); format: cell-based, Human; details: 0.25, 0.5, 1 μM; 24 hours; vs non-treated cells
Protocol: The evaluation of ASMO1 APT20TTMG effect on the mitochondrial membrane potential of MCF-7 cell line was performed using MitoTracker Red dye. MitoTracker Red is a cationic fluorophore that accumulates in the mitochondria matrix, providing an indication of the viability and integrity of that organelle.
For this, cells were cultured overnight in 24-well plates at a density of 1×10^5 cells/well, aiming cell adhesion. After that, cells were treated with three concentrations of APT20TTMG (0.25, 0.5, and 1 μM) for 24 hours. After treatment with the ASMO1, cells were collected using a 0.05% trypsin solution and washed twice with 2.0 mL of PBS buffer. Finally, samples were incubated with 500 μL of MitoTracker Red fluorescent dye solution at a concentration of 50 nM for 15 minutes in an incubator. Then the cells were again washed twice with 2 mL of PBS and, subsequently, analyzed in a flow cytometer (BD FACSCanto II, BD Biosciences) through the acquisition of 10.000 gated events/sample.

[4] = system: glioblastoma cell line U87-MG; assay: Internalization of FAM-conjugated compound by flow cytometry; format: cell-based, Human; details: 1 μM FAM conjugate
Protocol: The values obtained were: 1 hour (47.45±4.7%), 2 hours (45.45±3.9%), 4 hours (58±4.8%) and 6 hours (63.65±3.2%). Cells were exposed to the fluorochrome-conjugated compound FAM at a concentration of 1 μM, so that the quantification of intracellular fluorescence was performed at 1, 2, 4 and 6 hours using of the flow cytometry technique, through the acquisition of 10,000 gated events. Data of 2 independent experiments performed in two technical replicates.

[5] = system: U87-MG cell line; assay: Mitochondrial membrane potential; format: cell-based, Human; details: 0.25 and 0.5 μM
[6] = system: Human Glioblastoma Cancer (U-87MG) xenograft; assay: Histopathology of tumor samples with scoring; format: in vivo, athymic nude mice; design: key: 1: Few; 2: Moderate; 3: Large; details: individual animals; G3 APT20TTMG, G2 TMZ
Source text: The fixed tissues were processed for routine paraffin embedding followed by sectioning (3-6 micron). The sections were stained with hematoxylin and eosin. The prepared slides were examined under microscope by the study pathologist to record histopathological findings in tumor samples, related to capsule formation, cell type, connective tissue stroma, apoptosis, necrosis, lipid content, nucleus-to-cytoplasmic (N:C) ratio, nuclei mitotic figures, tumor grade, and level of differentiation. Each histopathological finding and tumor volume were assigned a score ranging from 1 to 4 (Table 7). The sum of these scores for each sample was used to infer the tumor aggressiveness.

APT20TTMG: engineered polynucleotide ASMO1, 24 nt, SEQ ID NO: 3 gtccactaacctttcaggccagcg; targeting moieties 5′-GTCCA-3′ and 5′-CG-3′, U1 snRNP recruiting moiety (GTCCACTAACCTTTCAGGCCAGCG; sugars from the 5' end m5 d14 m5, all phosphorothioate, methylation of C and T or U not given here)
concentration that starts some effect (MTT) ([1]; 96 hours): ≥ 0.3 µM | concentration from which a cytotoxic effect is seen (MTT) ([1]; up to 72 hours): ≥ 1 p M | internalization ([2]; after 1 hour and subsequent period (to 6 h)): around 80% | internalization ([2]; first half hour): 75.3±1.4% | mitochondrial membrane potential [3]: no change in mitochondrial membrane potential | internalization ([4]; 1 hour): 47.45±4.7% | internalization ([4]; 2 hours): 45.45±3.9% | internalization ([4]; 4 hours): 58±4.8% | internalization ([4]; 6 hours): 63.65±3.2% | mitochondrial membrane potential labeling [5]: reducing the labeling | Score: Mitotic figures [6]: 1 (4×) and 3
